According to patent US20140073631A1 (priority 2012, published 2014):
Converted amounts (≈) assume the structure as drawn. Read-outs that look alike come from different tables or passages of the source.

Legend:
[1] = tested on: HIV-1 ROJO (low passage clinical strain); test: PBMC assay, virus production by reverse transcriptase activity; assay type: cell-based
[2] = tested on: fresh human peripheral blood mononuclear cells
[3] = tested on: Burkholderia mallei; test: microbe, parasite or virus in culture; assay type: cell-based
[4] = tested on: Bacillus anthracis; test: microbe, parasite or virus in culture; assay type: cell-based; conditions: Bacillus anthracis; read-out: MIC90
[5] = tested on: Francisella tularensis; test: microbe, parasite or virus in culture; assay type: cell-based; conditions: Francisella tularensis
[6] = tested on: Flu A H1N1 New Caledonia/20/99; test: Anti-influenza testing, visual and NR assays; assay type: cell-based, influenza A H1N1; conditions: for activity by visual and NR assays: Flu A H1N1
[7] = tested on: Flu A H3N2 California/7/04; test: Anti-influenza testing, visual and NR assays; assay type: cell-based, influenza A H3N2; conditions: for activity by visual and NR assays: Flu A H3N2; for EC50: H3N2, MDCK
[8] = tested on: MDCK; test: Anti-influenza testing, IC50 in MDCK cell line (cell-inhibitory concentration used for SI); assay type: cell-based; conditions: Canis lupus familiaris
[9] = tested on: Plasmodium falciparum; test: Anti-malaria testing; assay type: cell-based

Cc1cn([C@H]2C[C@H](N=[N+]=[N-])[C@@H](CO)O2)c(=O)[nH]c1=O [AZT, reference compound] was tested, and the “RT ACTIVITY % VC” value ([1]; 0.0013 μM) was 104.6%, the “RT ACTIVITY % VC” value ([1]; 0.013 μM) was 77.3% and the “RT ACTIVITY % VC” value ([1]; 0.04 μM) was 81.7%. For the same compound, the “RT ACTIVITY % VC” value ([1]; 0.13 μM) was 32.3%, the “RT ACTIVITY % VC” value ([1]; 0.4 μM) was 3.8% and the “RT ACTIVITY % VC” value ([1]; 1.3 μM) was 8.8%. For the same compound, the “RT ACTIVITY % VC” value ([1]; 4 μM) was 0.7%, the IC50 ([1]; ROJO in PBMC, RT activity) was 100 nM and the CC50 [2] was greater than 4 µM. For the same compound, the “TOXICITY VALUES (XTT) % CC” value ([2]; 0.0013 μM) was 90.1%, the “TOXICITY VALUES (XTT) % CC” value ([2]; 0.013 μM) was 99.3% and the “TOXICITY VALUES (XTT) % CC” value ([2]; 0.04 μM) was 92.1%. The “TOXICITY VALUES (XTT) % CC” value ([2]; 0.13 μM) was 89.0%, the “TOXICITY VALUES (XTT) % CC” value ([2]; 0.4 μM) was 98.8% and the “TOXICITY VALUES (XTT) % CC” value ([2]; 1.3 μM) was 84.8%. The “TOXICITY VALUES (XTT) % CC” value ([2]; 4 μM) was 86.2%.

For CC[C@H]1OC(=O)[C@H](C)[C@@H](O[C@H]2C[C@@](C)(OC)[C@@H](O)[C@H](C)O2)[C@H](C)[C@@H](O[C@@H]2O[C@H](C)C[C@H](N(C)C)[C@H]2O)[C@](C)(O)C[C@@H](C)CN(C)[C@H](C)[C@@H](O)[C@]1(C)O [Azithromycin, azithromycin, reference compound], the “MIC Range” value [3] was 0.0625 to 1 µg/mL, the MIC50 ([3]; Burkholderia mallei) was 0.5 µg/mL (≈ 0.668 µM) and the MIC90 ([3]; Burkholderia mallei, read-out: MIC90) was 1 µg/mL (≈ 1.34 µM).

In the case of N=C(NC(=N)N1CCSCC1)NC1C2CC3CCC1(NC(=N)NC(=N)N1CCSCC1)CC3C2 (centres unmarked) [BVS-20A (XII)], the MIC90 [4] is reported as no more than 4 µg/mL and the MIC90 [5] is reported as less than 4 µg/mL.

With O=C1C2C=CC=C([N+](=O)[O-])C2(C(=O)O)C(c2ccccc2)N1c1ccc(O)cc1 (centres unmarked) [BVS-45A (I)] the “activity by visual and NR assays” value [6] was “highly active” and the “activity by visual and NR assays” value [7] was “highly active”.

Work on O=C1C2C=CC=C([N+](=O)[O-])C2(C(=O)O)C(c2ccccc2)N1c1ccc(O)cc1 (centres unmarked) [BVS-45] yielded an EC90 ([6]; Influenza A virus, Virus Yield assay, Flu A (H1N1) New Caledonia/20/99, MDCK, vehicle DMSO, trial 2) greater than 100 µg/mL, an EC50 ([6]; Influenza A virus, Visual-CONF assay, Flu A (H1N1) New Caledonia/20/99, MDCK, vehicle DMSO, trial 2, read-out: EC50) of 0.18 µg/mL (≈ 0.459 µM) and an EC50 ([7]; Influenza A virus, Neutral Red assay, Flu A (H3N2) California/7/04, MDCK, vehicle DMSO, trial 1) of 0.22 µg/mL (≈ 0.561 µM). The EC50 ([7]; Influenza A virus, Visual assay, Flu A (H3N2) California/7/04, MDCK, vehicle DMSO, trial 1) was 0.056 µg/mL (≈ 0.143 µM), the EC50 ([7]; Influenza A virus, Visual-CONF assay, Flu A (H3N2) California/7/04, MDCK, vehicle DMSO, trial 2) was 0.056 µg/mL (≈ 0.143 µM) and the EC90 ([7]; Influenza A virus, Virus Yield assay, Flu A (H3N2) California/7/04, MDCK, vehicle DMSO, trial 2) was 0.15 µg/mL (≈ 0.382 µM). It also gave an IC50 ([8]; Neutral Red assay, test with Flu A (H3N2) California/7/04, trial 1, read-out: IC50) of 75 µg/mL (≈ 191 µM), an IC50 ([8]; Visual assay, test with Flu A (H1N1) New Caledonia/20/99, trial 1) greater than 100 µg/mL and an IC50 ([8]; Visual assay, test with Flu A (H3N2) California/7/04, trial 1, read-out: IC50) greater than 100 µg/mL. For the same compound, the IC50 ([8]; Visual-CONF assay, test with Flu A (H1N1) New Caledonia/20/99, trial 2, read-out: IC50) was greater than 100 µg/mL and the IC50 ([8]; Visual-CONF assay, test with Flu A (H3N2) California/7/04, trial 2, read-out: IC50) was greater than 100 µg/mL.

Compound N#CNC(=N)NC1C2CC3CCC1(NC(=N)NC#N)CC3C2 (centres unmarked) [BVS-47A (XX)] has an IC50 ([9]; average of Test 1 and Test 2, read-out: Average IC50) greater than 10 µM, an IC50 ([9]; read-out: IC50 Test 1) greater than 10 µM and an IC50 ([9]; read-out: IC50 Test 2) greater than 10 µM. The “activity by visual and NR assays” value [6] was “highly active” and the “activity by visual and NR assays” value [7] was “highly active”.

N#CNC(=N)NC1C2CC3CCC1(NC(=N)NC#N)CC3C2 (centres unmarked) [BVS-47] gave an EC50 ([6]; Influenza A virus, H1N1, MDCK) of 0.25 µg/mL (≈ 0.832 µM) and an IC50 ([8]; Neutral Red assay, test with Flu A (H1N1) New Caledonia/20/99, trial 1) of 70 µg/mL (≈ 233 µM).
